# What was measured:
# [1] = biological target: T1, E. coli RNAP (Escherichia coli, UniProt P0A7Z4+P0A800+P0A8T7+P0A8V2); test: RNAP displacement assay, control reactions in the absence of Mfd; type: biochemical; conditions: RNAP with 12.5 μM ARM-1, no Mfd
# T1 construct: purchased NEB
# Protocol: FIGS. 2A-2D depict how ARM-1 affects Mfd's biochemical activity. FIG. 2A depicts how the kd of ARM-1 was determined using microscale thermophoresis. Data shown represent a minimum of three independent experiments. FIG. 2B depicts a NADH-coupled ATPase assay. ATP hydrolysis by Mfd was coupled to NADH oxidation. Phosphoenolpyruvate is converted to pyruvate by pyruvate kinase, transferring a phosphate group onto ADP, which is only present in the reaction following ATP hydrolysis by Mfd. Pyruvate is then converted to lactate by lactate dehydrogenase, oxidizing NADH to NAD^+. Absorbance at 340 nm by NADH is used to monitor the reaction. Data shown represent a minimum of 3 biological replicates. FIG. 2C depicts a transcription roadblock assay. A P32-labled 176 bp PCR fragment was incubated with E. coli RNAP along with saturating concentrations of ATP, GTP, and UTP. 100 nM S. typhimurium ST19 Mfd preincubated with indicated concentrations of ARM-1 was added and the reaction allowed to proceed for 6 minutes. DNA products were then resolved on a polyacrylamide gel and analyzed by phosphorimaging. […] Quantification of these gels is shown below each lane. […]
# Mfd translocates along double-stranded DNA and dislodges stalled RNAP complexes. […] When quantified, a ratio of EC to IC of approximately 1 was observed, which was consistent with prior work. […]
# [2] = system: S. typhimurium ST19; test: Invasion and infection efficiency in HeLa cells; type: cell-based; conditions: 31.25 μM ARM-1, compared to untreated WT
# Protocol: FIGS. 3A-3C depict how ARM-1 reduces mutation frequency in culture and during infection. FIG. 3A depicts a Luria-Delbruck fluctuation assay with ARM-1 treatment. Single colonies of WT and Δmfd S. typhimurium ST19 were used to inoculate overnight cultures with appropriate antibiotic selection. Cultures were then diluted back to OD600 0.0005 and grown to OD600 0.5 with or without 100 μM ARM-1 treatment. Samples were plated on 80 ng/ml ciprofloxacin and grown overnight, then enumerated the following day. Data shown are the result of a minimum of 50 replicates. FIG. 3B depicts the invasion and infection efficiency in the presence of ARM-1. WT S. typhimurium ST19 in mid-log phase growth was used to infect HeLa cells. Invasion was allowed to proceed for 1 hour before uninternalized bacteria were removed and fresh media applied, containing vehicle control or 31.25 μM ARM-1. At the indicated timepoints, HeLa cells were lysed using 1% Triton-H2O and intracellular bacteria serially diluted and plated on LB for CFU enumeration. FIG. 3C depicts mutation frequency post mammalian cell infection. WT and Δmfd S. typhimurium ST19 were used to infect HeLa cells as described in FIG. 3B. Following infection, intracellular bacteria were harvested and plated on 50 μg/mL 5-fluorocytosine and grown overnight. Mutants were enumerated the following morning. […]
# T1 sequence (P0A7Z4 whole entry): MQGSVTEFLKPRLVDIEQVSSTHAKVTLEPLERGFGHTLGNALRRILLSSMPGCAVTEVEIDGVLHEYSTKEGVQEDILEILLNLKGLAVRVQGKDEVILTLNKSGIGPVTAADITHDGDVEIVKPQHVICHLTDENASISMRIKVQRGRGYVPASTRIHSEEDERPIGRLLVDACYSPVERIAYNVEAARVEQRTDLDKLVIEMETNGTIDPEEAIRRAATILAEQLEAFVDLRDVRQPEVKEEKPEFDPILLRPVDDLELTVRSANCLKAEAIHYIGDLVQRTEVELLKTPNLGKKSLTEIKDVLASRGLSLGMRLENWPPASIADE
# T1 sequence (P0A8V2 whole entry): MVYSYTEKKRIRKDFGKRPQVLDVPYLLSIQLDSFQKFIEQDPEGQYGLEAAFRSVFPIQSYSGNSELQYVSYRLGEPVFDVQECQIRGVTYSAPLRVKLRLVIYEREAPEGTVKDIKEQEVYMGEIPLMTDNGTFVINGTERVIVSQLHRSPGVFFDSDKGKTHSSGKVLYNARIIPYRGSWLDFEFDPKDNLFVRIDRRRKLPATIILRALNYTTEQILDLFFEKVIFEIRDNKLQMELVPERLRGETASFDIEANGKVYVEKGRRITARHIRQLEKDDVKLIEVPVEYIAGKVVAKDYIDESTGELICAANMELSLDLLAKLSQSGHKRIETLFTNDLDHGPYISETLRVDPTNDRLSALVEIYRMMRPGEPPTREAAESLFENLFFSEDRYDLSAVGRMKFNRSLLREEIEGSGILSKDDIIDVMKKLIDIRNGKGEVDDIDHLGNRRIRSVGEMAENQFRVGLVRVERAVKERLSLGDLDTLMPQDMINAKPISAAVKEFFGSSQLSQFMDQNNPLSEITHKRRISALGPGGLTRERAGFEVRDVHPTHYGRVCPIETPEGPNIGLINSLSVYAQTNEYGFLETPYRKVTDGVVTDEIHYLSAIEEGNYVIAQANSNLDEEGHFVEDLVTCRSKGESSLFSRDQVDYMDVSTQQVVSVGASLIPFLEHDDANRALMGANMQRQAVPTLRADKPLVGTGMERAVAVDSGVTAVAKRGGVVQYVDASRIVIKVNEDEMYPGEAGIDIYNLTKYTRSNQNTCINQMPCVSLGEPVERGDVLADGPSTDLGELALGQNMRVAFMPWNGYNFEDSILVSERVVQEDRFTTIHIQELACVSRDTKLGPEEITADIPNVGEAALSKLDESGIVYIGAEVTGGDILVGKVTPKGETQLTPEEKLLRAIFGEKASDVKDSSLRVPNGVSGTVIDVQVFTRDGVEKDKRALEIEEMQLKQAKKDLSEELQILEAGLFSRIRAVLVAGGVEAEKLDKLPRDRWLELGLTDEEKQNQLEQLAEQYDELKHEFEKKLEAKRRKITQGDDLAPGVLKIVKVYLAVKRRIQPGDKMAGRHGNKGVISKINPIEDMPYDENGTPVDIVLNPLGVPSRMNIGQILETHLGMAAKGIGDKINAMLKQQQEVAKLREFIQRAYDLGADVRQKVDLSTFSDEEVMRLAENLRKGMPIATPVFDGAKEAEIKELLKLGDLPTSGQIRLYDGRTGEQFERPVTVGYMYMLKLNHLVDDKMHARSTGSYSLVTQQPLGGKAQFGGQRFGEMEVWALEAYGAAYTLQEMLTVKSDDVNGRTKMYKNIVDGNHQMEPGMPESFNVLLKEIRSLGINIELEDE
# T1 sequence (P0A800 2-91): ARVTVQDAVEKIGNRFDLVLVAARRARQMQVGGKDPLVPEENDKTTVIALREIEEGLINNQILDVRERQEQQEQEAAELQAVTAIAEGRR
# T1 sequence (P0A8T7 whole entry): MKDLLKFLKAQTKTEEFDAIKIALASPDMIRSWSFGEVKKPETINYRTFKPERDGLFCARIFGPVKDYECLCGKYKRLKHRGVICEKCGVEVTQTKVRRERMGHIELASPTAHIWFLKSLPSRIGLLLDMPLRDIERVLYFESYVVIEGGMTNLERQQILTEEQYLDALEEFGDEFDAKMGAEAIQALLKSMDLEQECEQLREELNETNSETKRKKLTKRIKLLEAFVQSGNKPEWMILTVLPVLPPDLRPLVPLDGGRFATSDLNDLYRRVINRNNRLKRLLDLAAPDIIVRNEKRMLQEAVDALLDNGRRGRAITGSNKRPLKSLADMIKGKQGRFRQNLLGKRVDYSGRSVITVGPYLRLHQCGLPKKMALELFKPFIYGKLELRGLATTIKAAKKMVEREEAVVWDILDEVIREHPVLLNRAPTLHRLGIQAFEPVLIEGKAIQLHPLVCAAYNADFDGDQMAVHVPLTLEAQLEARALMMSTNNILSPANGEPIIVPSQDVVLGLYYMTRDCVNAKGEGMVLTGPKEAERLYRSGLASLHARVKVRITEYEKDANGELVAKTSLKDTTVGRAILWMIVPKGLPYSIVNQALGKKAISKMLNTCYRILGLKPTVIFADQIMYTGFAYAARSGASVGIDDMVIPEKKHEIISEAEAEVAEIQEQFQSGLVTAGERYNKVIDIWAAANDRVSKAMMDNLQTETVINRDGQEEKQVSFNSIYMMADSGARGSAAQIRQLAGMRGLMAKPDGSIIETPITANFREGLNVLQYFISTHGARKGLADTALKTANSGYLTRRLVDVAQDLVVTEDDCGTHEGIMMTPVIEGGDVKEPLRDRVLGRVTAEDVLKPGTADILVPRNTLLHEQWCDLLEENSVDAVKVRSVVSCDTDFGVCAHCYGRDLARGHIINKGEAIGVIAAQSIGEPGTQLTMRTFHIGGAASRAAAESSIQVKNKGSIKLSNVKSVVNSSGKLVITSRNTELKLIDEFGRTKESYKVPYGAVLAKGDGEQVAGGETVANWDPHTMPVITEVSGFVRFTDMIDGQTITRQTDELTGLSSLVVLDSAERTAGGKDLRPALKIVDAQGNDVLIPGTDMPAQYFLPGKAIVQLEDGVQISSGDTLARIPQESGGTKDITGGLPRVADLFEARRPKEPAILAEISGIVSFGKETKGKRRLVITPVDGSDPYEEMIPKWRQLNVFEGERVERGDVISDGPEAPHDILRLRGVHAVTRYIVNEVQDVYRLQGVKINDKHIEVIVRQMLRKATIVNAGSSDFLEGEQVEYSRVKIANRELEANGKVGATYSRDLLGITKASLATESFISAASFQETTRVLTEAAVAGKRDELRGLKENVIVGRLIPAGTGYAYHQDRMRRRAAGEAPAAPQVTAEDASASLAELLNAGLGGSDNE
compound,measurement,setting,value
"Cc1cc(Br)ccc1-c1ccc(CNCCCN(C)C)o1 [ARM-1, N^1-((5-(4-bromo-2-methylphenyl)furan-2-yl)methyl)-N^3,N^3-dimethylpropane-1,3-diamine]",changes on RNAP complexes in the absence of Mfd,[1],did not have any detectable changes
same,defect in invasion or proliferation in HeLa cells,[2],Neither the Δmfd mutant nor ARM-1 or solvent-treated wild-type or Δmfd strains show a defect in invasion or proliferation

# — patent US20260015333A1, “COMPOUNDS AND METHODS FOR INHIBITION OF THE EVOLUTION OF […]” (priority 2022, published 2026)
